Test results reported in patent publication US20240376056A1, “PHENYL ACETAMIDE BASED IL-17A MODULATORS AND USES THEREOF” (DiCE Alpha, Inc., priority 2021, published 2024).

Target: T1, IL-17A/A (Homo sapiens, UniProt Q16552)
T1 construct: purchased Genscript Z03228
T1 sequence (Q16552 24-155): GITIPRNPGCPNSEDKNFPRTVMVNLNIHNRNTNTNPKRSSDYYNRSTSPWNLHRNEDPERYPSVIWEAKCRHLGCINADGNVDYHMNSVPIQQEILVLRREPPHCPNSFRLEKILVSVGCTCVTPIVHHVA
Test: HEK-Blue IL-17A/A inhibition assay (SEAP reporter)
Type: cell-based
Conditions: HEK-Blue cells (HEK 293 expressing IL-17RA, IL-17RC, Act1); IL-17A/A stimulation; 20 hours; SEAP read at A630; 4-parameter fit
Outline: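 HEK 293 cells engineered with IL-17RA, IL-17RC and Act1 (NFκB-driven SEAP) given titrated compound (top final 10, 1 or 0.3 uM; 0.1% DMSO) just before IL-17A/A, then incubated 20 h. SEAP in media developed with Quanti-Blue, read at A630; IC50 by 4-parameter nonlinear fit.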

Row | Molecule | IC50 [µM]
1 | CCc1nonc1C(=O)N[C@H](C(=O)Nc1cc(C)c(C(C)C(=O)NCC(F)(F)F)cc1F)C1CCC(F)(F)CC1 (stereo partly drawn) [Compound 224] | 0.1 to 1
2 | CCc1nonc1C(=O)N[C@H](C(=O)Nc1cc(C)c(C(C)C(=O)N(C)CC(F)(F)F)cc1F)C1CCC(F)(F)CC1 (stereo partly drawn) [Compound 225] | 0.1 to 1
3 | CNCc1cc(NC(=O)[C@@H](NC(=O)c2ccnn2C(C)C)C(C2CC2)C2CC2)c(F)cc1C(C)C(=O)NCC(F)(F)F (stereo partly drawn) [Compound 226] | 0.1 to 1
4 | CC(C(=O)N(C)CC(F)(F)F)c1cc(F)c(NC(=O)[C@@H](NC(=O)c2ccnn2C(C)C)C(C2CC2)C2CC2)cc1CNCCO (stereo partly drawn) [Compound 227] | 0.1 to 1
5 | CC(C(=O)N1CCC(C(N)=O)C1C(F)(F)F)c1cc(F)c(NC(=O)[C@@H](NC(=O)c2ccnn2C(C)C)C(C2CC2)C2CC2)cc1C(F)(F)F (stereo partly drawn) [Compound 228] | 0.1 to 1
6 | CC(C)c1nocc1C(=O)N[C@H](C(=O)Nc1cc(C(F)(F)F)c(C(C)C(=O)NCC(F)(F)F)cc1F)C(C1CC1)C1CC1 (stereo partly drawn) [Compound 229] | > 1
7 | CC(C(=O)NCC(F)(F)F)c1cc(F)c(NC(=O)[C@@H](NC(=O)c2ccnn2C(C)C)C(C2CC2)C2CC2)cc1N1CCOCC1 (stereo partly drawn) [Compound 232] | > 1
8 | CC(C(=O)N(C)CC(F)(F)F)c1cc(F)c(NC(=O)[C@@H](NC(=O)c2ccnn2C(C)C)C(C2CC2)C2CC2)cc1N(C)C (stereo partly drawn) [Compound 233] | > 1
9 | CC(C(=O)NCC(F)(F)F)c1cc(F)c(NC(=O)[C@@H](NC(=O)c2ccnn2C(C)C)C(C2CC2)C2CC2)cc1N(C)C (stereo partly drawn) [Compound 234] | > 1
10 | CC(C(=O)N1CCCN1)c1ccc(NC(=O)[C@@H](NC(=O)c2ccnn2C(C)C)C(C2CC2)C2CC2)c(F)c1 (stereo partly drawn) [Compound 235] | > 1
11 | CCn1nccc1C(=O)N[C@H](C(=O)Nc1cc(C)c(C(C)C(=O)NCC(F)(F)F)cc1F)C(C1CC1)C1CC1 (stereo partly drawn) [Compound 236] | < 0.1
12 | Cc1c(F)c(NC(=O)[C@@H](NC(=O)c2conc2C2CC2)C(C2CC2)C2CC2)cc(C(F)(F)F)c1C(C)C(=O)NCC(F)(F)F (stereo partly drawn) [Compound 237] | > 1
13 | CC(C)c1nonc1C(=O)N[C@H](C(=O)Nc1cc(C(F)(F)F)c(C(C)C(=O)NCC(F)(F)F)cc1F)C(C1CC1)C1CC1 (stereo partly drawn) [Compound 238] | 0.1 to 1
14 | CCn1nccc1C(=O)N[C@H](C(=O)Nc1cc(C(F)(F)F)c(C(C)C(=O)N2CC(F)(F)CC2C(F)(F)F)cc1F)C(C1CC1)C1CC1 (stereo partly drawn) [Compound 239] | 0.1 to 1
15 | CCn1nccc1C(=O)N[C@H](C(=O)Nc1cc(C(F)(F)F)c(C(C)C(=O)N2CC(F)(F)C(F)(F)C2)cc1F)C(C1CC1)C1CC1 (stereo partly drawn) [Compound 242] | 0.1 to 1
16 | CCN(C)C(=O)C(C)c1cc(F)c(NC(=O)[C@@H](NC(=O)c2ccnn2CC)C(C2CC2)C2CC2)cc1C (stereo partly drawn) [Compound 243] | 0.1 to 1
17 | CCNC(=O)C(C)c1cc(F)c(NC(=O)[C@@H](NC(=O)c2ccnn2CC)C(C2CC2)C2CC2)cc1C (stereo partly drawn) [Compound 244] | > 1

Row | Molecule | IC50 [µM]
18 | CCn1nccc1C(=O)N[C@H](C(=O)Nc1cc(OC(F)(F)F)c(C(C)C(=O)N(C)CC(F)(F)F)cc1F)C(C1CC1)C1CC1 (stereo partly drawn) [Compound 245] | 0.1 to 1
19 | CC(C(=O)N(C)CC(F)(F)F)c1cc(F)c(NC(=O)[C@@H](NC(=O)c2ccnn2C(C)C)C(C2CC2)C2CC2)cc1OC(F)(F)F (stereo partly drawn) [Compound 246] | > 1
20 | CC(C(=O)NCC(F)(F)F)c1cc(F)c(NC(=O)[C@@H](NC(=O)c2ccnn2C)C(C2CC2)C2CC2)cc1OC(F)(F)F (stereo partly drawn) [Compound 247] | > 1
21 | CCn1nccc1C(=O)N[C@H](C(=O)Nc1cc(OC(F)(F)F)c(C(C)C(=O)NCC(F)(F)F)cc1F)C(C1CC1)C1CC1 (stereo partly drawn) [Compound 248] | > 1
22 | COC(=O)Nc1cc(NC(=O)[C@@H](NC(=O)c2ccnn2C(C)C)C(C2CC2)C2CC2)c(F)cc1C(C)C(=O)NCC(F)(F)F (stereo partly drawn) [Compound 249] | 0.1 to 1
23 | CC(C(=O)N1CCC(C(N)=O)C1C(F)(F)F)c1cc(F)c(NC(=O)[C@@H](NC(=O)c2ccnn2C(C)C)C(C2CC2)C2CC2)cc1C(F)(F)F (stereo partly drawn) [Compound 250] | < 0.1
24 | Cc1cc(NC(=O)[C@@H](NC(=O)c2nonc2C2CC2)C(C2CC2)C2CC2)c(F)cc1C(C)C(=O)NCC(F)(F)F (stereo partly drawn) [Compound 251] | < 0.1
25 | CCn1nccc1C(=O)N[C@H](C(=O)Nc1cc(OC(F)(F)F)c(C(C)C(=O)N(C)CC(F)(F)F)cc1F)C(C1CC1)C1CC1 (stereo partly drawn) [Compound 253] | < 0.1
26 | CC(C(=O)NCC(F)(F)F)c1cc(F)c(NC(=O)[C@@H](NC(=O)c2ccnn2C(C)C)C(C2CC2)C2CC2)cc1Nc1ccccn1 (stereo partly drawn) [Compound 254] | > 1
27 | CCOC(=O)Nc1cc(NC(=O)[C@@H](NC(=O)c2ccnn2C(C)C)C(C2CC2)C2CC2)c(F)cc1C(C)C(=O)NCC(F)(F)F (stereo partly drawn) [Compound 255] | > 1
28 | CC(C(=O)NCC(F)(F)F)c1cc(F)c(NC(=O)[C@@H](NC(=O)c2ccnn2C(C)C)C(C2CC2)C2CC2)cc1NC(=O)OCCN (stereo partly drawn) [Compound 256] | 0.1 to 1
29 | CC(C(=O)N(C)CC(F)(F)F)c1cc(F)c(NC(=O)[C@@H](NC(=O)c2ccnn2C(C)C)C(C2CC2)C2CC2)cc1OC(F)(F)F (stereo partly drawn) [Compound 257] | < 0.1
30 | CC(C(=O)NCC(F)(F)F)c1cc(F)c(NC(=O)[C@@H](NC(=O)c2ccnn2C)C(C2CC2)C2CC2)cc1OC(F)(F)F (stereo partly drawn) [Compound 258] | < 0.1
31 | CCn1nccc1C(=O)N[C@H](C(=O)Nc1cc(OC(F)(F)F)c(C(C)C(=O)NCC(F)(F)F)cc1F)C(C1CC1)C1CC1 (stereo partly drawn) [Compound 259] | < 0.1
32 | CC(C(=O)NCC(F)(F)F)c1cc(F)c(NC(=O)[C@@H](NC(=O)c2ccnn2C(C)C)C(C2CC2)C2CC2)cc1CS(C)(=N)=O (stereo partly drawn) [Compound 260] | 0.1 to 1
33 | N-((S)-1,1-dicyclopropyl-3-((2-fluoro-4-((S)-1-oxo-1-(3-(trifluoromethyl)azetidin-1-yl)propan-2-yl)phenyl)amino)-3-oxopropan-2-yl)-1-ethyl-1H-pyrazole-5-carboxamide [Compound 14] | 0.1 to 1
